Test results from patent EP1283052A1, “Pharmaceutical composition containing caspase-8 and /or caspase-9 useful for overcoming glucocorticoid- and cancer therapy-induced apoptosis of tumours” (Deutsches Krebsforschungszentrum Stiftung des öffentlichen …, priority 2001, dated 2003).

System: P5 cells
Assay: P5 xenografts in nude mice, intratumoural therapy, tumour volume
Assay type: in vivo
Details: Fig. 7
Protocol: P5 cells were injected subcutaneously in nude mice. At a tumour volume of 500 mm^3 therapy was started (day 0) and repeated at day 2 and 12 as indicated by arrows. A total volume of 100 µl in PBS was injected intratumoural containing liposomes and cisplatin (5mg/kg), or liposomes with cisplatin and a mixture of recombinant caspase-8 and -9 proteins (10 U each) and pcDNA3caspase-8 and pcDNA3caspase-9 expression vectors (10 µg each) in the absence (CIS) or presence of DEX (DEX/CIS), (DEX/CIS/CASPASES) in the drinking water (0.28 mg/L). As controls, tumour growth of xenografts from untreated mice (CO) or from mice which received liposomes and empty pcDNA3 expression vector only (CO/Liposomes) was determined. The tumour volume in each animal was measured every second day for a period of 16 days. […]
• (A) Cell culture. […] The mice were given 0.28 mg/L DEX in drinking water, and the amount of water consumed was monitored. […] The tumour volumes were measured using callipers, and calculated using, as an approximation, the formula for volume of a hemi-ellipsoid: π(width^2 x length)/6. […] Early apoptotic changes were identified by staining of cells with fluoresceinthiocyanate (FITC)-conjugated annexin V and propidium iodide (Becton Dickinson, Heidelberg, Germany) and analysed by flow cytometry (FACScan, Becton Dickinson) as described (Herr et al., EMBO J. 16 (1997), 6200-6208) • (E) Immunohistochemistry. […]

**Q.** What does the source list for `N.N.[Cl][Pt][Cl]` [cisplatin]?
**A.** tumour growth (cisplatin 5mg/kg with liposomes intratumoural, day 0, 2 and 12, initial phase): initially reduced; tumour growth (cisplatin-treated tumours at day 10 after treatment): developed resistance and started to grow
